Assay results published in ChEMBL document CHEMBL1201862, “PubChem BioAssay data set” (2004).
Calls of active or inactive are those of the source.

Assays:
[1] = intracellular Trypanosoma cruzi inhibitors in host cells – cell-based, plate reader, cherry-pick samples, set 3, dose response (AID 651818); assay type: functional;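 further: compounds incubated with infected cells for about four days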
Protein skinhead-1 = molecular target: T1, Protein skinhead-1 (Caenorhabditis elegans, UniProt P34707); assay type: functional
T1 sequence (P34707 whole entry): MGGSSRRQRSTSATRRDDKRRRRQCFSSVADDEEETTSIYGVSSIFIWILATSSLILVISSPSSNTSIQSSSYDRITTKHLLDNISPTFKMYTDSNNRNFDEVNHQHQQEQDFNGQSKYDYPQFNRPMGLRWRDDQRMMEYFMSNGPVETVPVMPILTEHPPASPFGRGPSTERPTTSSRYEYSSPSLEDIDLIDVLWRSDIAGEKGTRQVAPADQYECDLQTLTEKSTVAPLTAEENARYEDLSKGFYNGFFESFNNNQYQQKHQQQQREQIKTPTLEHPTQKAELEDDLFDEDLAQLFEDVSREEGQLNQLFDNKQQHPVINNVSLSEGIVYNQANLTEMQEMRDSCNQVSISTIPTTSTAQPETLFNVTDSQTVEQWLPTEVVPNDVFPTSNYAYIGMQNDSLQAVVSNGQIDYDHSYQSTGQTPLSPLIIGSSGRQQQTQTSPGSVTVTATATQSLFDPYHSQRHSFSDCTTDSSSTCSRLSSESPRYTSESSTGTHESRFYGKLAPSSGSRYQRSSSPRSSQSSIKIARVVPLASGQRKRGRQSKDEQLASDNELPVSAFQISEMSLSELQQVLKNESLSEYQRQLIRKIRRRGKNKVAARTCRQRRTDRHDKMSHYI

[2] = molecular target: T2, Polyadenylate-binding protein 1 (Homo sapiens, UniProt P11940); experiment: PABP1 MLLE–PAM2 interaction inhibitors, dose response, miRNA deadenylation inhibitor project, biochemical, fluorescence polarization, Cy5-PAM2 peptide, secondary (AID 602260); assay type: functional; conditions: read-out: IC50_Mean
[3] = molecular target: T2, Polyadenylate-binding protein 1; experiment: PABP1 MLLE–PAM2 binding inhibitor potency, dose response, biochemical, fluorescence polarization, FITC-PAM2 peptide (AID 602259); assay type: functional; conditions: read-out: IC50_Mean
[4] = A cytotoxicity screen of small molecule inhibitors of the PhoP region in Salmonella typhi identified in the primary screen. [Related pubchem assays: 1850, 1864, 1985 ]; assay type: functional
[5] = microbe, parasite or virus in culture; assay type: functional; conditions: Mycobacterium tuberculosis
Paired box protein Pax-8 = Paired box protein Pax-8 (Homo sapiens, UniProt Q06710); experiment: inhibitors of PAX8-driven TPO luciferase reporter, dose response, RMG-I cells, cherry-pick (AID 687027); assay type: functional, cell-based;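 further: luciferase reporter driven by Pax8 target thyroperoxidase promoter measured by SteadyGlo luminescence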
[6] = control 3'UTR Renilla luciferase suppression, dose response, counter-screen for Shn3 inhibitor project, cell-based, Clone20-Shn3RL, cherry-picked (AID 624133); assay type: functional
[7] = Shn3 3'UTR reporter inhibitors, dose response, cell-based, Clone20 osteoblasts, firefly luciferase, cherry-picked (AID 624132); assay type: functional;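 further: firefly luciferase luminescence from reporter carrying the Shn3 3'UTR in osteoblasts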
[8] = tested on: Streptococcus sp. 'group A'; experiment: growth inhibition of control SK(-) GAS strain, dose response, counter-screen for streptokinase expression inhibitor project, luminescence, kanamycin, BacTiterGlo, confirmation (AID 1900); assay type: functional, organism-based
[9] = Luminescence Cell-Based Dose Retest to Confirm Inhibitors of Cancer Stem Cells. [Related pubchem assays (depositor defined):AID2717, AID2721]; assay type: functional; conditions: Homo sapiens
Streptococcus = experiment: Group A Streptococcus viability loss, dose response, counter-screen for streptokinase expression inhibitor project, luminescence, BacTiterGlo (AID 1915); assay type: functional, organism-based;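 further: potency for reduction of bacterial viability or growth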
Streptokinase A = molecular target: T3, Streptokinase A (Streptococcus pyogenes serotype M1, UniProt P10520); experiment: S. pyogenes streptokinase expression inhibitors, potency, dose response, plasminogen activation absorbance, OD405 (AID 1914); assay type: functional, Streptococcus pyogenes M1 GAS;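 further: secreted streptokinase activity via plasminogen activation per viability signal from cell pellet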
T3 sequence (P10520 whole entry): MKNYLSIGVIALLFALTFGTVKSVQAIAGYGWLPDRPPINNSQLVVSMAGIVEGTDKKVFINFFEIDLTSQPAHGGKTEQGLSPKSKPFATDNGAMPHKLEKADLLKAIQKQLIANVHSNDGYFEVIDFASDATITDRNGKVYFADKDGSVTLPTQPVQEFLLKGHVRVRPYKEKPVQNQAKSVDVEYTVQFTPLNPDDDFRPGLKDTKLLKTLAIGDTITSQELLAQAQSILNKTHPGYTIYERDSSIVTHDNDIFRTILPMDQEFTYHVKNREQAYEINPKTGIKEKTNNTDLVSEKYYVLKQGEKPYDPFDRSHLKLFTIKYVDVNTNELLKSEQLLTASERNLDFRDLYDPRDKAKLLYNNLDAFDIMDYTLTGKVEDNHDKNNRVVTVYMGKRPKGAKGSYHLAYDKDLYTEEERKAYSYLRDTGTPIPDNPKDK

[10] = inhibitors of intracellular T. cruzi replication, confirmation, NIH3T3 host cells, beta-gal luminescence (AID 2044); assay type: functional, cell-based;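 further: intracellular parasites grown in NIH/3T3 mouse fibroblasts as host cells; luminescent beta-galactosidase reporter signal from transgenic T. cruzi replicating inside host cells; inhibitors lower the luminescence signal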
[11] = Luminescence Cell-Based Dose Confirmation HTS to Identify Activators of 5'UTR Stem-Loop Driven Alpha-Synuclein mRNA Translation in H4 Neuroglioblastoma Cells. [Related pubchem assays: 1829 (Project Summary), 1814 (Primary HTS)]; assay type: functional
[12] = cytotoxicity toward NIH3T3 fibroblasts, dose response, counter-screen, cell-based, ATP luminescence, mouse fibroblasts (AID 2010); assay type: functional;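 further: cells exposed to compound for about 90 hours before reading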
H4 = experiment: Luminescence Cell-Based Dose Response HTS to Identify Activators of 5'UTR Stem-Loop Driven Prion Protein mRNA Translation in H4 Neuroglioblastoma Cells. [Related pubchem assays: 1829 (Project Summary), 1814 (Primary HTS)]; assay type: functional; conditions: Homo sapiens
[13] = Luminescence Cell-Based Dose Response HTS to Identify Activators of Luciferase Translation or Activity in H4 […] Cells. [Related pubchem assays: 1829 (Project Summary), 1814 (Primary HTS)]; assay type: functional
INS1 = experiment: beta cell apoptosis inhibitors, cytokine rescue, dose response, luminescence, retest (AID 449756); assay type: functional, cell-based; conditions: Rattus norvegicus;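 further: cell death triggered by IL-1 beta plus TNF-alpha plus IFN-gamma mixture; protective hits raise ATP signal compared with cytokine alone wells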
[14] = molecular target: T4, Zinc finger protein mex-5 (Caenorhabditis elegans, UniProt Q9XUB2); experiment: MEX-5/TCR-2 RNA interaction inhibitors, dose response, biochemical, C. elegans, fluorescence polarization (AID 1960)
T4 sequence (Q9XUB2 whole entry): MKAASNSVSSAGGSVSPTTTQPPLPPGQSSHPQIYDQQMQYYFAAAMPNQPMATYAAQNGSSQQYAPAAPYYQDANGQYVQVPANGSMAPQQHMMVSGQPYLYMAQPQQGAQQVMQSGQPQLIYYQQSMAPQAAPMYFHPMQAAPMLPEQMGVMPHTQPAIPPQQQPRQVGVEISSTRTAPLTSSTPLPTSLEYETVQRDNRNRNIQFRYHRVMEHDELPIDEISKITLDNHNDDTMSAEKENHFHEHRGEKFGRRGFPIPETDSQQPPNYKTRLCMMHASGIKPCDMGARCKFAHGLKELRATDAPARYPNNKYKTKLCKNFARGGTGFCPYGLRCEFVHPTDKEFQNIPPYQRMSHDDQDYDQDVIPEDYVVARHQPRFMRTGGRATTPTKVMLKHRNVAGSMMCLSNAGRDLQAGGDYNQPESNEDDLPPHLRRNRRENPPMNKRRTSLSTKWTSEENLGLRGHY

[15] = molecular target: T5, RNA-binding protein pos-1 (Caenorhabditis elegans, UniProt G5EF15); experiment: inhibitors of POS-1/mex-3 RNA binding, dose response, biochemical, fluorescence polarization (AID 1964);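 further: purified POS-1 fused to maltose binding protein made in E. coli; potency of compounds blocking POS-1 binding to fluorescent RNA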
T5 sequence (G5EF15 whole entry): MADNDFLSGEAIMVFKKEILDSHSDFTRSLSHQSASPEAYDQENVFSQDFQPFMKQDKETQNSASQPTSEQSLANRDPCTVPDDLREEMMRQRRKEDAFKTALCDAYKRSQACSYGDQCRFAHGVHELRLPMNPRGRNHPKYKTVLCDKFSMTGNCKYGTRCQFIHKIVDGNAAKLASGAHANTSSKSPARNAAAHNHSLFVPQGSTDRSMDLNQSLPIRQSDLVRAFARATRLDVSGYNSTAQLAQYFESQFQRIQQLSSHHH

cells = assay type: functional

T2 sequence (P11940 whole entry): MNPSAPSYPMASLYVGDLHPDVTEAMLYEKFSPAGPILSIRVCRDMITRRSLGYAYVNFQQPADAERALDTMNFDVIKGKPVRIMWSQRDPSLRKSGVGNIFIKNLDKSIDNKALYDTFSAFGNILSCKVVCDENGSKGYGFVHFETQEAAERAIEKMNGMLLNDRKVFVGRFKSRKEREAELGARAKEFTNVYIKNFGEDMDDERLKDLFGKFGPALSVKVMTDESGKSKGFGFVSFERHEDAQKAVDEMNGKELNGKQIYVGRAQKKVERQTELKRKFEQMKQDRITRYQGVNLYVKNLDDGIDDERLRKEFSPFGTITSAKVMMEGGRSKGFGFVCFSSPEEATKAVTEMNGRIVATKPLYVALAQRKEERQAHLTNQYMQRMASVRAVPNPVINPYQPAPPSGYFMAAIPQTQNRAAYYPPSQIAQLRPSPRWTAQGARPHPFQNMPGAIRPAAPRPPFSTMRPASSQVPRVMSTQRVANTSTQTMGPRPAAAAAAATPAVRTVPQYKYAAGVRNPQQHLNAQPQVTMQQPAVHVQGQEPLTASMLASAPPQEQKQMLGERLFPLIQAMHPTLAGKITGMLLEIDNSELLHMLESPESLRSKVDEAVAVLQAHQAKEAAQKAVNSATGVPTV
Paired box protein Pax-8, sequence (Q06710 whole entry): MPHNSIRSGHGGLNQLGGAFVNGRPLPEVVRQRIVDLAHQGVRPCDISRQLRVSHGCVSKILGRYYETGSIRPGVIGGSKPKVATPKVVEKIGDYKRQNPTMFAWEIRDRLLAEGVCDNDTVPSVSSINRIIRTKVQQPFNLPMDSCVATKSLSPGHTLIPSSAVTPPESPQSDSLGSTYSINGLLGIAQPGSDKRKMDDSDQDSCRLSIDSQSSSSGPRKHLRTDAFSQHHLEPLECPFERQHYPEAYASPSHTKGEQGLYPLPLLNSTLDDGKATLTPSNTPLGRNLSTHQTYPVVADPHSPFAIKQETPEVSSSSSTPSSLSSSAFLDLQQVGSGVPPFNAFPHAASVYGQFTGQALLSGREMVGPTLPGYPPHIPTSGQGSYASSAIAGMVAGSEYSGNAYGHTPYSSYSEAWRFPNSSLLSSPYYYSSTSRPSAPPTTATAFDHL

C[C@@H]1CN([C@@H](C)CO)C(=O)Cc2cc(NC(=O)Nc3ccc4c(c3)OCO4)ccc2O[C@@H]1CN(C)Cc1ccc(-c2ccccc2)cc1
AC50 [1]: 4.26 µM (active)

O=C(Nc1ccc(Cl)cc1)NC1CCCCNC1=O (stereo not given)
IC50 (Protein skinhead-1): > 100 µM (inactive)

O=C(NC(=S)Nc1ncccn1)c1ccccc1Br
IC50 [2]: > 66 µM (inactive)
IC50 [3]: > 66 µM (inactive)

COc1ccccc1C1CC(c2cccc(NS(C)(=O)=O)c2)=NN1S(=O)(=O)c1ccccc1 (stereo not given)
IC50 (Protein skinhead-1): > 100 µM (inactive)

CC1(C)c2ccccc2C(=O)c2ccccc21
IC50 (Protein skinhead-1): 24 µM (active)

Cc1ccc(NC(S)=NCc2cccs2)cc1
EC50 [4]: > 50 µM (active)

COc1ccc(CNc2[nH]cnc3c4cc(OC)c(OC)cc4nc2-3)cc1
CC50 [5]: > 40 µM (active)

COc1nc(-c2ccccc2)cc(-c2ccc(OC)c(OC)c2)n1
CC50 [5]: > 40 µM (active)

CCOC(=O)c1c(N2C(=O)CC(Sc3ccccc3C(=O)O)C2=O)sc2c1CCCC2 (stereo not given)
IC50 [2]: > 66 µM (inactive)
IC50 [3]: > 66 µM (inactive)

CCC(C)(O)C(=O)OC1C(=O)OC2CC3C(C)=CC(=O)C(O)C3(C)C3C4(O)OCC23C1C(C)C4O (stereo not given)
AC50 (Paired box protein Pax-8): 0.426 µM (active)
AC50 [6]: 5.79 µM (active)
AC50 [7]: 0.866 µM (active)

CN1CCN(C2=Cc3ccc(Cl)cc3Sc3ccc(F)cc32)CC1
EC50 [8]: 7.12 µM (active)
CC50 [5]: 33.1 µM (active)
AC50 [9]: 6.81 µM (active)
EC50 (Streptococcus): 7.8 µM (active)

Clc1c(-c2ccccc2)nnn1-c1ccccc1
IC50 (Protein skinhead-1): > 100 µM (inactive)

O=C(N/N=C/c1cc(Cl)cc([N+](=O)[O-])c1O)C1CC1
EC50 [4]: > 50 µM (active)

CC(C)Oc1ccc(C(=O)NC2=NCCS2)cc1
IC50 [2]: > 66 µM (inactive)
IC50 [3]: > 66 µM (inactive)

O=C(CCn1c(=O)c2ccccc2n(CC(=O)NCCC2=CCCCC2)c1=O)NCc1ccco1
IC50 (Protein skinhead-1): > 100 µM (inactive)

N#C/C(=C(/O)c1ccco1)c1nc2ccccc2s1
EC50 [4]: > 50 µM (active)

Sc1nc2ccccc2c2nc(-c3ccccc3)nn12
EC50 (Streptokinase A): > 150 µM (not active)
EC50 [8]: 5.84 µM (active)
CC50 [5]: 35.2 µM (active)
EC50 (Streptococcus): > 150 µM (not active)

Cc1nc(NC(=O)C23CC4CC(CC(C4)C2)C3)sc1Cc1ccc2c(c1)OCO2
EC50 [10]: 0.844 µM (active)
EC50 [11]: 15.8 µM (active)
EC50 [12]: > 60 µM (not active)
EC50 (H4): 8.65 µM (active)
EC50 [13]: 6.33 µM (active)
AC50 (INS1): 14.1 µM (active)

CCCCCCC#Cc1ccc2c(c1)COc1c3ccccc3nn1-2
AC50 [6]: 7.68 µM (active)

c1ccc(C2=NNC(c3ccccn3)=NN2)nc1
EC50 [14]: 22.4 µM (active)
IC50 [2]: > 66 µM (inactive)
EC50 [15]: 25.3 µM (active)
IC50 [3]: > 66 µM (inactive)

C[C@@]12C(=O)N(Cc3ccc(-c4ccccc4)cc3)CC(=O)N1[C@H](/C=C/c1ccccc1)[C@@H]1C(=O)N(c3ccccc3)C(=O)[C@@H]12
IC50 (Protein skinhead-1): > 100 µM (inactive)

O=[N+]([O-])c1ccc(-c2cnc(NO)nc2)cc1
EC50 [4]: > 50 µM (active)

CC1CC(C)CN(C(=O)COC(=O)c2ccc([N+](=O)[O-])o2)C1 (stereo not given)
IC50 (cells): 14.7 µM (active)

COc1ccc(S(=O)(=O)N2CN3CCN(C3)C2)cc1
EC50 [4]: > 50 µM (active)

CCCN1CCc2nc(S)nc(O)c2C1
IC50 [2]: > 66 µM (inactive)
IC50 [3]: > 66 µM (inactive)

CC(c1ccccc1)(c1ccccc1)c1ccncc1
EC50 [4]: > 50 µM (active)

CC(=O)NCCn1c(C)cc2ccccc21
IC50 (Protein skinhead-1): > 100 µM (inactive)

COc1cc(C(=O)NC(=S)Nc2ccc(NC(=O)c3ccco3)cc2)cc(OC)c1OC
IC50 [2]: > 66 µM (inactive)
IC50 [3]: > 66 µM (inactive)
EC50 [8]: 14.8 µM (active)
EC50 (Streptococcus): 7.42 µM (active)

Brc1ccc(-c2nnc(-c3ccccc3)o2)o1
IC50 (Protein skinhead-1): > 100 µM (inactive)

COC(=O)C(O)(c1ccc(NC(=S)NC(=O)c2ccccc2)cc1)C(F)(F)F (stereo not given)
IC50 (cells): 39.6 µM (active)

Cc1cccc(N2CCN(C(=O)CCN3C(S)=NC(C)(C)CC3C)CC2)c1C (stereo not given)
EC50 [4]: > 50 µM (active)

Cc1ccc[n+](-c2[nH]c(=O)sc2C=NNC(=O)c2ccccc2[O-])c1
EC50 [14]: 38.5 µM (active)
IC50 [2]: > 66 µM (inactive)
EC50 [15]: 42.4 µM (active)
IC50 [3]: 43.9 µM (inactive)

COc1ccc(-c2ccc(OC)c([C@H]3[C@@H]4C=CCC[C@@]4(C)C(=O)N3Cc3ccccc3)c2)cc1OC
CC50 [5]: > 40 µM (active)

NC(=O)c1ccc[n+](CC(=O)c2cccc([N+](=O)[O-])c2)c1
EC50 [4]: > 50 µM (active)
